According to patent US6569229B1, “Low-freezing point formulation containing phenol derivatives” (Omya AG, priority 1998, dated 2003):

How the values were obtained:
[1] = Solubility / miscibility in water and attainable concentration; assay type: physicochemical; conditions: NaOH as neutralizing agent, room temperature; higher concentrations impossible or recrystallized during storage
[2] = pH of the preserved slurry or coolant; assay type: physicochemical
[3] = cited from earlier work
[4] = Brookfield viscosity of the preserved pigment slurry; assay type: physicochemical
Experimental: Measurement of the viscosity was performed on a Brookfield viscosimeter type PVF-100 at 100 rpm. The following spindles were used for the individual measurements:
The measurement was carried out in a low 400 ml beaker.
The temperature during the measurement was 20° C. The measurement was performed after 1 min of stirring.
Prior to the actual measurements, all samples were stirred intensively for 2 min (5000 rpm, stirring disc diameter 50 mm).
This type of viscosity measurement was used in all of the following examples.

aerobic mesophilic germs = experiment: Germ count (determination of aerobic mesophilic germs) in preserved slurry or coolant; assay type: cell-based, pseudomonads (predominantly Pesudomonas aeruginosa)
Experimental: The germ count was determined according to the method “Determination of aerobic mesophilic germs”, Schweizerisches Lebensmittelbuch, chapter 56, paragraph 7.01, 1985 edition, revised version 1988. Mostly, the bacterial strains detected were from the family of pseudomonads (predominantly Pesudomonas aeruginosa).

Oc1ccccc1-c1ccccc1 [o-phenylphenol]
attainable concentration of o-phenylphenol solution [1]: ≤ 20 % by wt. | pH of coolant ([2]; 5% oil in water coolant emulsion, 2 kg actives/t, added as 50% solution (Example 13), blank 6.9): 7.0 | pH of slurry ([2]; calcium carbonate slurry 77.8% solids, 250 g actives/t, added according to example 8, 47.5% solution (Example 11), blank 9.6): 9.5 | pH of slurry ([2]; calcium carbonate slurry 77.8% solids, 250 g actives/t, added as solution of example 2 (Example 4, prior art), blank 9.6): 10.2 | pH of slurry ([2]; kaolin slurry 72.8% solids, 300 g actives/t, added as solution of example 1 (Example 3, prior art), blank 7.4): 8.1 | pH of slurry ([2]; kaolin slurry 72.8% solids, 300 g actives/t, added as solution of example 7 (Example 10), blank 7.4): 7.4 | pH of slurry ([2]; talc slurry 64.2% solids, 350 g actives/t, added as 30% solution of example 9 (Example 12), blank 10.1): 10.2 | solubility in water [3]: almost insoluble in water | water miscibility ([3]; o-phenylphenol in monopropylene glycol): not water miscible | Brookfield viscosity spindle 3, 100 rpm after preparation ([4]; calcium carbonate slurry 77.8% solids, 250 g actives/t, added according to example 8, 47.5% solution (Example 11), blank 340): 350 mPas | Brookfield viscosity spindle 3, 100 rpm after 1 week ([4]; calcium carbonate slurry 77.8% solids, 250 g actives/t, added according to example 8, 47.5% solution (Example 11), blank 350): 380 mPas | Brookfield viscosity spindle 3, 100 rpm after preparation ([4]; calcium carbonate slurry 77.8% solids, 250 g actives/t, added as solution of example 2 (Example 4), blank 340): 320 mPas | Brookfield viscosity spindle 3, 100 rpm after 1 week ([4]; calcium carbonate slurry 77.8% solids, 250 g actives/t, added as solution of example 2 (Example 4), blank 350): 460 mPas | Brookfield viscosity spindle 3, 100 rpm after preparation ([4]; kaolin slurry 72.8% solids, 300 g actives/t, added as solution of example 1 (Example 3), blank 240): 310 mPas | Brookfield viscosity spindle 3, 100 rpm after 1 week ([4]; kaolin slurry 72.8% solids, 300 g actives/t, added as solution of example 1 (Example 3), blank 330): 760 mPas | Brookfield viscosity spindle 3, 100 rpm after preparation ([4]; kaolin slurry 72.8% solids, 300 g actives/t, added as solution of example 7 (Example 10), blank 240): 250 mPas | Brookfield viscosity spindle 3, 100 rpm after 1 week ([4]; kaolin slurry 72.8% solids, 300 g actives/t, added as solution of example 7 (Example 10), blank 330): 350 mPas | Brookfield viscosity spindle 3, 100 rpm after preparation ([4]; talc slurry 64.2% solids, 350 g actives/t, added as 30% solution of example 9 (Example 12), blank 320): 320 mPas | Brookfield viscosity spindle 3, 100 rpm after 1 week ([4]; talc slurry 64.2% solids, 350 g actives/t, added as 30% solution of example 9 (Example 12), blank 480): 540 mPas | germ count after 24 hrs (aerobic mesophilic germs; 5% oil in water coolant emulsion, 2 kg actives/t, added as 50% solution (Example 13), blank 10^7/g): < 100 g⁻¹ | germ count after 24 hrs (aerobic mesophilic germs; calcium carbonate slurry, 250 g actives/t, added according to example 8, 47.5% solution (Example 11), blank 10^6/g): < 100 g⁻¹ | germ count after 24 hrs (aerobic mesophilic germs; calcium carbonate slurry, 250 g actives/t, added as solution of example 2 (Example 4), blank 10^5/g): < 100 g⁻¹ | germ count after 24 hrs (aerobic mesophilic germs; kaolin slurry, 300 g actives/t, added as solution of example 1 (Example 3), blank 10^5/g): < 100 g⁻¹ | germ count after 24 hrs (aerobic mesophilic germs; kaolin slurry, 300 g actives/t, added as solution of example 7 (Example 10), blank 10^5/g): < 100 g⁻¹ | germ count after 24 hrs (aerobic mesophilic germs; talc slurry, 350 g actives/t, added as 30% solution of example 9 (Example 12), blank 10^5/g): < 100 g⁻¹
